Drawing on patent EP3154958B1, “PHOSPHATIDYLINOSITOL 3-KINASE INHIBITORS” (Gilead Sciences, Inc., priority 2014, dated 2015), this text covers IC50 for 23 compounds.

Like-named read-outs stand apart in the source and are kept apart here.

Common to all, as to assay type: biochemical
One assay deals with T1, PI3Kδ (Homo sapiens, UniProt O00329).
T1 construct: made in house
Put plainly: TR-FRET enzymatic activity assay, PI3Kδ. In short, it runs like this: (§1)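 Compounds were profiled per isoform in a biochemical kinase reaction, with activity detected by time-resolved fluorescence resonance energy transfer.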

In another assay the target is T2, PI3Kβ (Homo sapiens, UniProt P42338).
T2 construct: made in house
T2 sequence (P42338 whole entry): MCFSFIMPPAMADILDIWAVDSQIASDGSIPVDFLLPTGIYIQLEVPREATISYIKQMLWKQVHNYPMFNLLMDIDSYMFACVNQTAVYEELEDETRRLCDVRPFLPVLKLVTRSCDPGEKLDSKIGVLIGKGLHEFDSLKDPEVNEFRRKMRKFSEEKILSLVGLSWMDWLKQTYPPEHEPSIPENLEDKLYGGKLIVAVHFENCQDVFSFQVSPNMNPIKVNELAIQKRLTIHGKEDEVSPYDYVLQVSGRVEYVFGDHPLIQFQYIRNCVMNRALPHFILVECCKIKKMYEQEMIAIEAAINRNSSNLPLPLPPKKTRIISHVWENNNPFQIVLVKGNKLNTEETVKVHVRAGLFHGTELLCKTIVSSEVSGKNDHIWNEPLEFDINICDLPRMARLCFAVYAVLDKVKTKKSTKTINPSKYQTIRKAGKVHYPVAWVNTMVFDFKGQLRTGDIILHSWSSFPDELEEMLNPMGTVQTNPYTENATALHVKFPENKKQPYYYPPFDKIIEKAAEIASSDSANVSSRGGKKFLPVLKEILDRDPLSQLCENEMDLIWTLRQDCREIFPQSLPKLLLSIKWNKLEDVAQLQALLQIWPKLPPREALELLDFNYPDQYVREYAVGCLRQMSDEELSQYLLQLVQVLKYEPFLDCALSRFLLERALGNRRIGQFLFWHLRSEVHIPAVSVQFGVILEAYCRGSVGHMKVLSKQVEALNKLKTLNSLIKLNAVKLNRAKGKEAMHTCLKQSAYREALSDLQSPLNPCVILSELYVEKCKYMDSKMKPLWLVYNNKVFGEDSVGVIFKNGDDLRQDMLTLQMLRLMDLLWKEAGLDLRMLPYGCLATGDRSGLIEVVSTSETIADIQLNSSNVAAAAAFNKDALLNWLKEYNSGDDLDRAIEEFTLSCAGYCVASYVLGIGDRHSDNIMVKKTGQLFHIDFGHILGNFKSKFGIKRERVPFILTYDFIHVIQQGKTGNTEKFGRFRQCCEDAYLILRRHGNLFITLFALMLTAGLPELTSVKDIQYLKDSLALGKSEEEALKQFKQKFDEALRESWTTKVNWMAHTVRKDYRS
T2 sequence (P27986 whole entry partner): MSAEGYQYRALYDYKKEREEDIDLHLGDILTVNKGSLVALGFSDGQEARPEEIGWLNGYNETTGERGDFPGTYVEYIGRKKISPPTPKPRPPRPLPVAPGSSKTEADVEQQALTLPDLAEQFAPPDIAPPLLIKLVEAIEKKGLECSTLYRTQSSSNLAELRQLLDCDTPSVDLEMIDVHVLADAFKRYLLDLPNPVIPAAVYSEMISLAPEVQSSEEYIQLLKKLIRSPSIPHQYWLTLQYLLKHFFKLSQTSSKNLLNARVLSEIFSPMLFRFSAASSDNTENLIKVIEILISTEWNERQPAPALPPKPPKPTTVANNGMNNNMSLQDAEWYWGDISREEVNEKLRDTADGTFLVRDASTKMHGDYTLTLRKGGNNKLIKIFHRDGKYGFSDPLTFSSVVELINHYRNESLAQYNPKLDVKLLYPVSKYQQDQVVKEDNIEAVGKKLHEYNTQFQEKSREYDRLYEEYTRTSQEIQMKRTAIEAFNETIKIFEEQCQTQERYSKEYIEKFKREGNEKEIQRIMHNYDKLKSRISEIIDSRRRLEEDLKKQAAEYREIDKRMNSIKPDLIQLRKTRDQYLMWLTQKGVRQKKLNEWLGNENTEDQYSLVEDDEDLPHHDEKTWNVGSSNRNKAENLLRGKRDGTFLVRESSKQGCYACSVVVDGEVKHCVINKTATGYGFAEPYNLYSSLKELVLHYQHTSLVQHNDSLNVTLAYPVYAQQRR
Put plainly: TR-FRET enzymatic activity assay, PI3Kβ. In short, it runs like this:
as §1

A further assay addresses T3, PI3Kγ (Homo sapiens, UniProt P48736).
T3 construct: made in house
The assay can be described thus: TR-FRET enzymatic activity assay, PI3Kγ. In short, it runs like this:
as §1

The mark [1] stands for this setting: recombinant heterodimeric PI3Kδ 25-50 pM, 2× Km ATP, 30 minutes at 25°C.
The mark [2] stands for this setting: recombinant heterodimeric PI3Kβ 25-50 pM, 2× Km ATP, 30 minutes at 25°C.
Where [3] appears, read: recombinant heterodimeric PI3Kγ 2 nM, 2× Km ATP, 30 minutes at 25°C.

T3 sequence (P48736 whole entry): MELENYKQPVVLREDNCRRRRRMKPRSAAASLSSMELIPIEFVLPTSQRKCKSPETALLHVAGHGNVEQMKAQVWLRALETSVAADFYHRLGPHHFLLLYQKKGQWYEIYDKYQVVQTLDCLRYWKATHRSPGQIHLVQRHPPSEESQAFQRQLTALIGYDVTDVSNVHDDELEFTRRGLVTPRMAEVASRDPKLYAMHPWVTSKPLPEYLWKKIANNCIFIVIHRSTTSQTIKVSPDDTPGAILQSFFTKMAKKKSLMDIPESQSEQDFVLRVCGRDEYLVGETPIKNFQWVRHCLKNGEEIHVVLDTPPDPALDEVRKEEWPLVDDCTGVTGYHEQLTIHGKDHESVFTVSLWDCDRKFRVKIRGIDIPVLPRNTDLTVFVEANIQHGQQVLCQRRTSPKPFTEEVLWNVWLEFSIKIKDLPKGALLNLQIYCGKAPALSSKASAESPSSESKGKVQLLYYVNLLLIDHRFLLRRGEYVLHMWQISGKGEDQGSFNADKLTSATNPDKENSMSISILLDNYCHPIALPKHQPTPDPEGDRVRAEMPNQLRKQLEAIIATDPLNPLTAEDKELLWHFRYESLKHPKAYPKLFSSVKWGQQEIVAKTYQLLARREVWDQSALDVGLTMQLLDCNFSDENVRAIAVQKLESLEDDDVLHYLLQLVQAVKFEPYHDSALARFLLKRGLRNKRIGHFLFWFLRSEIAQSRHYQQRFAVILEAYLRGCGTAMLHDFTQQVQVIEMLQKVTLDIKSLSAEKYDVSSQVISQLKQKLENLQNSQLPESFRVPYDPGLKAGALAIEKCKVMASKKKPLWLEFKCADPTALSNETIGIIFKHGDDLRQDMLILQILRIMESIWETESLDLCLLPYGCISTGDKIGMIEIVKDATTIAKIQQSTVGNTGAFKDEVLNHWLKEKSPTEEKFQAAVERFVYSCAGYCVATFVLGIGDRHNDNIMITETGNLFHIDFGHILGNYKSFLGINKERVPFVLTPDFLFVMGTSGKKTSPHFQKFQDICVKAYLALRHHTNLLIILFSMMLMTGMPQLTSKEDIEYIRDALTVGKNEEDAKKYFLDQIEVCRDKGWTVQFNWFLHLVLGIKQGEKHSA
T3 sequence (Q8WYR1 whole entry partner): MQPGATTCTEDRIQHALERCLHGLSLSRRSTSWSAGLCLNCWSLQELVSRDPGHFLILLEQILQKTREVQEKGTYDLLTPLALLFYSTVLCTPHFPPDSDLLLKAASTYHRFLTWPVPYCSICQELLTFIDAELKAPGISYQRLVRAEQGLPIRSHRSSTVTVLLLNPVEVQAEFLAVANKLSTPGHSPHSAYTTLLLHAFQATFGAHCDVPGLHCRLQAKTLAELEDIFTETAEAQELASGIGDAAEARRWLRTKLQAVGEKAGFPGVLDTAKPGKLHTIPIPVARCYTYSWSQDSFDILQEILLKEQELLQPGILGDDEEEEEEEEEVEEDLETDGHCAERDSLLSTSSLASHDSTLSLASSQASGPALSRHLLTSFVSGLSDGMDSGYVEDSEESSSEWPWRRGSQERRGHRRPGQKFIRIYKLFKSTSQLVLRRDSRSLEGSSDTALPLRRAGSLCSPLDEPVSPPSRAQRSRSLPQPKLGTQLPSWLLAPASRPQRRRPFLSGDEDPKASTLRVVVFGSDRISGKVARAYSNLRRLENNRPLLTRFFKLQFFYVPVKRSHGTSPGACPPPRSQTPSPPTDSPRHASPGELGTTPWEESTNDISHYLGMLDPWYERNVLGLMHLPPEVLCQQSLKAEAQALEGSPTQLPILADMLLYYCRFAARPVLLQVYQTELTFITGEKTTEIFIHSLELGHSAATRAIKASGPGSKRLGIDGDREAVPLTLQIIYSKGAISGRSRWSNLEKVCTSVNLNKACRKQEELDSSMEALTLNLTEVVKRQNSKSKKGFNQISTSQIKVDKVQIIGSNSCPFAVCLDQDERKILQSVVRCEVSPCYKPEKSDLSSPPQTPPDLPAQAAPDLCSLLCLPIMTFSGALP
T1 sequence (O00329 whole entry): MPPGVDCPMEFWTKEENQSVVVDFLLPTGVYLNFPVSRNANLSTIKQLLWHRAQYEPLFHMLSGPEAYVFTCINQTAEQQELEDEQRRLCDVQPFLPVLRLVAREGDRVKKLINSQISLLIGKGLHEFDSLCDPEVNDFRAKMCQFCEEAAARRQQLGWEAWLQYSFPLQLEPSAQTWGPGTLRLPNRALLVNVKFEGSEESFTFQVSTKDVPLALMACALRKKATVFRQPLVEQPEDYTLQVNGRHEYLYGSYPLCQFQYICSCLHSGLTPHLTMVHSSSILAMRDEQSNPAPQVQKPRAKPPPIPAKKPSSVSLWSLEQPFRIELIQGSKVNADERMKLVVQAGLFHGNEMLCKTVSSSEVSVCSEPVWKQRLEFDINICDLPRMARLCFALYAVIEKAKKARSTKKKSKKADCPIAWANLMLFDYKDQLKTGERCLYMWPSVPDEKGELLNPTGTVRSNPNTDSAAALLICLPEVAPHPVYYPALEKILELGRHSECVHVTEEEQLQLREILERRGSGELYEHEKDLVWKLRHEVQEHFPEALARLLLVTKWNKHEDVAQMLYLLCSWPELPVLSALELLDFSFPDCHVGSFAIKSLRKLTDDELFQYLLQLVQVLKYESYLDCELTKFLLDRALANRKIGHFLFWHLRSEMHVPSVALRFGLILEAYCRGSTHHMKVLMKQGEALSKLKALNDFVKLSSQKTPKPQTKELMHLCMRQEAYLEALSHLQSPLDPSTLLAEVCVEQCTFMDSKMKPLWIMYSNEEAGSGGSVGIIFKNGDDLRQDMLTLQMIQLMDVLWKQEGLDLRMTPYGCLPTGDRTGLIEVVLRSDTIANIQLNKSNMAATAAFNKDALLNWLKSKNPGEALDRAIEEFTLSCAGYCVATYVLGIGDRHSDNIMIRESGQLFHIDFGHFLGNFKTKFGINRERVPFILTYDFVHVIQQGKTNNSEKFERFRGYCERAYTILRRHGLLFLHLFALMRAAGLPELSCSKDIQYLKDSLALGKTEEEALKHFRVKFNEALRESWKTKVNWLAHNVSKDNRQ
T1 sequence (P27986 whole entry partner): as the sequence (P27986 whole entry partner) above

`C[C@H](Nc1nc(N)nc(N)c1C#N)c1nc2cccc(Cl)c2c(=O)n1C1CCN(CC(F)F)CC1` [Compound 99, (S)-2,4-diamino-6-((1-(5-chloro-3-(1-(2,2-difluoroethyl)piperidin-4-yl)-4-oxo-3,4-dihydroquinazolin-2-yl)ethyl)amino)pyrimidine-5-carbonitrile]: the half-inhibitory concentration (IC50) at PI3Kδ (setting [1]) worked out at 14 nM; on PI3Kβ (setting [2]) it was 720 nM; at PI3Kγ (setting [3]) it was 1600 nM.
As to `Cc1nc(N)nc(N[C@@H](C)c2nc3cccc(Cl)c3c(=O)n2N2CCN(CC(F)(F)F)CC2)c1C#N` [Compound 109, (S)-2-amino-4-((1-(5-chloro-4-oxo-3-(4-(2,2,2-trifluoroethyl)piperazin-1-yl)-3,4-dihydroquinazolin-2-yl)ethyl)amino)-6-methylpyrimidine-5-carbonitrile], the half-inhibitory concentration (IC50) was determined as 14 nM at PI3Kδ (setting [1]), 290 nM on PI3Kβ (setting [2]) and 660 nM at PI3Kγ (setting [3]).
Taken in the same sequence, the figures for `CC(C)C[C@H](Nc1nc(N)nc(N)c1C#N)c1nc2cccc(Cl)c2c(=O)n1N1CCNCC1` [Compound 75, (S)-2,4-diamino-6-((1-(5-chloro-4-oxo-3-(piperazin-1-yl)-3,4-dihydroquinazolin-2-yl)-3-methylbutyl)amino)pyrimidine-5-carbonitrile] were 15 nM, 37 nM and over 10000 nM.
`CC[C@H](Nc1nc(N)nc(N)c1C#N)c1nc2cccc(Cl)c2c(=O)n1N1CCN(Cc2ccc(OC)cc2)CC1` [Compound 92, (S)-2,4-diamino-6-((1-(5-chloro-3-(4-(4-methoxybenzyl)piperazin-1-yl)-4-oxo-3,4-dihydroquinazolin-2-yl)propyl)amino)pyrimidine-5-carbonitrile]: the values for the concentration for half-maximal inhibition (IC50) on PI3Kδ (setting [1]), at PI3Kβ (setting [2]) and on PI3Kγ (setting [3]) were 27 nM, 41 nM and 1400 nM, respectively.
For the compound `C[C@H](Nc1ncnc(N)c1C#N)c1nc2cccc(Cl)c2c(=O)n1N1CCNCC1` [Compound 55, (S)-4-amino-6-((1-(5-chloro-4-oxo-3-(piperazin-1-yl)-3,4-dihydroquinazolin-2-yl)ethyl)amino)pyrimidine-5-carbonitrile], the concentration for half-maximal inhibition (IC50) on PI3Kδ (setting [1]) is 1 nM; at PI3Kβ (setting [2]), 14 nM; at PI3Kγ (setting [3]), over 10000 nM.
Consider `Cc1nc(N)nc(N[C@@H](C)c2nc3c(F)ccc(Cl)c3c(=O)n2N2CCN(Cc3ccccc3)CC2)c1C#N` [Compound 118, (S)-2-amino-4-((1-(3-(4-benzylpiperazin-1-yl)-5-chloro-8-fluoro-4-oxo-3,4-dihydroquinazolin-2-yl)ethyl)amino)-6-methylpyrimidine-5-carbonitrile], for which the IC50 is 17 nM at PI3Kδ (setting [1]), 14 nM on PI3Kβ (setting [2]) and 650 nM on PI3Kγ (setting [3]).
As to `CC[C@H](Nc1nc(N)nc(C)c1C#N)c1nc2cccc(Cl)c2c(=O)n1N1CCN(Cc2ccc(F)cc2)CC1` [Compound 90, (S)-2-amino-4-((1-(5-chloro-3-(4-(4-fluorobenzyl)piperazin-1-yl)-4-oxo-3,4-dihydroquinazolin-2-yl)propyl)amino)-6-methylpyrimidine-5-carbonitrile], the values for the 50% inhibitory concentration (IC50) on PI3Kδ (setting [1]), at PI3Kβ (setting [2]) and at PI3Kγ (setting [3]) were 23 nM, 52 nM and 2000 nM, respectively.
Taken in the same sequence, the figures for `C[C@H](Nc1ncnc(N)c1Cl)c1nc2cccc(Cl)c2c(=O)n1N1CCNCC1` [Compound 37, (S)-2-(1-((6-amino-5-chloropyrimidin-4-yl)amino)ethyl)-5-chloro-3-(piperazin-1-yl)quinazolin-4(3H)-one] were 3 nM, 39 nM and over 10000 nM.
With `N#Cc1c(N)nc(N)nc1N[C@H](c1nc2cccc(Cl)c2c(=O)n1N1CCOCC1)C1CC1` [Compound 121, (S)-2,4-diamino-6-(((5-chloro-3-morpholino-4-oxo-3,4-dihydroquinazolin-2-yl)(cyclopropyl)methyl)amino)pyrimidine-5-carbonitrile], the results for the IC50 at PI3Kδ (setting [1]), on PI3Kβ (setting [2]) and on PI3Kγ (setting [3]) were 2 nM, 134 nM and 190 nM, respectively.
Regarding `C[C@H](Nc1ncnc(N)c1C#N)c1nc2cccc(Cl)c2c(=O)n1N1CCN(C)CC1` [Compound 5, (S)-4-amino-6-((1-(5-chloro-3-(4-methylpiperazin-1-yl)-4-oxo-3,4-dihydroquinazolin-2-yl)ethyl)amino)pyrimidine-5-carbonitrile], the IC50 is 19 nM on PI3Kδ (setting [1]), 190 nM on PI3Kβ (setting [2]) and over 10000 nM at PI3Kγ (setting [3]).
Turning to `C[C@H](Nc1ncnc(N)c1C#N)c1nc2cccc(Cl)c2c(=O)n1N1CCC(N)C1` (stereo partly drawn) [Compound 130, 4-amino-6-(((1S)-1-(3-(3-aminopyrrolidin-1-yl)-5-chloro-4-oxo-3,4-dihydroquinazolin-2-yl)ethyl)amino)pyrimidine-5-carbonitrile], the concentration for half-maximal inhibition (IC50) is 1 nM at PI3Kδ (setting [1]), 62 nM at PI3Kβ (setting [2]) and over 10000 nM at PI3Kγ (setting [3]).
Regarding `C[C@H](Nc1nc(N)nc(N)c1C#N)c1nc2cccc(Cl)c2c(=O)n1[C@H]1CCNC1` [Compound 30, 2,4-diamino-6-(((S)-1-(5-chloro-4-oxo-3-((S)-pyrrolidin-3-yl)-3,4-dihydroquinazolin-2-yl)ethyl)amino)pyrimidine-5-carbonitrile], the results for the 50% inhibitory concentration (IC50) at PI3Kδ (setting [1]), at PI3Kβ (setting [2]) and on PI3Kγ (setting [3]) were 140 nM, 350 nM and over 10000 nM, respectively.
In the same order, the values of `C[C@H](Nc1nc(N)nc(N)c1C#N)c1nc2cccc(Cl)c2c(=O)n1N1CCC(N)CC1` [Compound 129, (S)-2,4-diamino-6-((1-(3-(4-aminopiperidin-1-yl)-5-chloro-4-oxo-3,4-dihydroquinazolin-2-yl)ethyl)amino)pyrimidine-5-carbonitrile] are 4 nM, 120 nM and 5000 nM.
Consider `C[C@H](Nc1nc(N)nc(N)c1Cl)c1nc2cccc(Cl)c2c(=O)n1N1CCN(CC(F)F)CC1` [Compound 112, (S)-5-chloro-2-(1-((2,6-diamino-5-chloropyrimidin-4-yl)amino)ethyl)-3-(4-(2,2-difluoroethyl)piperazin-1-yl)quinazolin-4(3H)-one], for which the IC50 at PI3Kδ (setting [1]) was 280 nM; on PI3Kβ (setting [2]), 7800 nM; on PI3Kγ (setting [3]), over 10000 nM.
For `N#Cc1c(N)nc(N)nc1N[C@H](c1nc2cccc(Cl)c2c(=O)n1C1[C@H]2CNC[C@@H]12)C1CC1` (stereo in doubt) [Compound 15, 4-(((1S)-(3-((1R,5S)-3-azabicyclo[3.1.0]hexan-6-yl)-5-chloro-4-oxo-3,4-dihydroquinazolin-2-yl)(cyclopropyl)methyl)amino)-2,6-diaminopyrimidine-5-carbonitrile], the half-maximal inhibitory concentration (IC50) against PI3Kδ turned out to be 0.6 nM; against PI3Kβ, 2 nM; at PI3Kγ, 650 nM.
Consider `C[C@H](Nc1ncnc2scc(Cl)c12)c1nc2cccc(Cl)c2c(=O)n1N1CCNCC1` [Compound 35, (S)-5-chloro-2-(1-((5-chlorothieno[2,3-d]pyrimidin-4-yl)amino)ethyl)-3-(piperazin-1-yl)quinazolin-4(3H)-one], for which the results for the IC50 at PI3Kδ (setting [1]), at PI3Kβ (setting [2]) and at PI3Kγ (setting [3]) were 93 nM, 570 nM and over 10000 nM, respectively.
Turning to `C[C@H](Nc1ncnn2ccnc12)c1nc2cccc(Cl)c2c(=O)n1N1CCNCC1` [Compound 65, (S)-5-chloro-2-(1-(imidazo[2,1-f][1,2,4]triazin-4-ylamino)ethyl)-3-(piperazin-1-yl)quinazolin-4(3H)-one], the half-maximal inhibitory concentration (IC50) on PI3Kδ (setting [1]) is 8 nM; at PI3Kβ (setting [2]), 42 nM; on PI3Kγ (setting [3]) it was over 10000 nM.
Consider `C[C@H](Nc1nc(N)nc(N)c1C#N)c1nc2cccc(Cl)c2c(=O)n1[C@H]1CCCNC1` [Compound 28, 2,4-diamino-6-(((S)-1-(5-chloro-4-oxo-3-((S)-piperidin-3-yl)-3,4-dihydroquinazolin-2-yl)ethyl)amino)pyrimidine-5-carbonitrile], for which the concentration for half-maximal inhibition (IC50) on PI3Kδ (setting [1]) is 22 nM; on PI3Kβ (setting [2]), 170 nM; at PI3Kγ (setting [3]) it was 6400 nM.
With `N#Cc1c(N)nc(N)nc1N[C@H](c1nc2cccc(Cl)c2c(=O)n1N1CCNCC1)C1CC1` [Compound 77, (S)-2,4-diamino-6-(((5-chloro-4-oxo-3-(piperazin-1-yl)-3,4-dihydroquinazolin-2-yl)(cyclopropyl)methyl)amino)pyrimidine-5-carbonitrile], the IC50 is 1 nM on PI3Kδ (setting [1]), 1 nM at PI3Kβ (setting [2]) and 2900 nM on PI3Kγ (setting [3]).
For `C[C@H](Nc1ncnc(N)c1C#N)c1nc2cccc(Cl)c2c(=O)n1C1CCN(C)CC1` [Compound 6, (S)-4-amino-6-((1-(5-chloro-3-(1-methylpiperidin-4-yl)-4-oxo-3,4-dihydroquinazolin-2-yl)ethyl)amino)pyrimidine-5-carbonitrile], the IC50 on PI3Kδ (setting [1]) was 68 nM; on PI3Kβ (setting [2]), 460 nM; on PI3Kγ (setting [3]) it was over 10000 nM.
In the same order, the values of `N#Cc1c(N)nc(N)nc1N[C@H](c1nc2c(Cl)ccc(Cl)c2c(=O)n1C1CCC1)C1CC1` [Compound 138, (S)-2,4-diamino-6-((cyclopropyl(5,8-dichloro-3-cyclobutyl-4-oxo-3,4-dihydroquinazolin-2-yl)methyl)amino)pyrimidine-5-carbonitrile] are 1 nM, 58 nM and 524 nM.
In the same order, the values of `C[C@H](Nc1ncnc2ccoc12)c1nc2cccc(Cl)c2c(=O)n1N1CCNCC1` [Compound 34, (S)-5-chloro-2-(1-(furo[3,2-d]pyrimidin-4-ylamino)ethyl)-3-(piperazin-1-yl)quinazolin-4(3H)-one] are 10 nM, 83 nM and over 10000 nM.
Taken in the same sequence, the figures for `Cc1nc(N)nc(N[C@@H](C)c2nc3c(F)ccc(Cl)c3c(=O)n2N2CCNCC2)c1C#N` [Compound 21, (S)-2-amino-4-((1-(5-chloro-8-fluoro-4-oxo-3-(piperazin-1-yl)-3,4-dihydroquinazolin-2-yl)ethyl)amino)-6-methylpyrimidine-5-carbonitrile] were 0.7 nM, 2 nM and 890 nM.
